Measured values reported in a melting point compilation (Tetko et al.; mined from patent text by program, amines drawn as free bases though some values may be those of a salt).

melting point [°C] | Compound
71 to 72 | CCCCCCCCCCCCN=C1SC(=CC(=O)O)C(=O)N1CCCCCCCCCCCC
> 250 | C[Si](C)(C)Oc1nc(-c2ccccc2)nc2c1CC(S(=O)(=O)c1ccccc1)CC2 (stereo not drawn)
145 to 147 | Cc1c(C)c2c(c(C)c1NC(=O)CC(C)(C)C)C(c1ccc(C(C)CCO)cc1)CO2 (stereo not drawn)
156 to 158 | COc1ccc(CNC(=O)Nc2ccc(CN3C(=O)[C@H]4CCC[C@H]4N(C(=O)CN4C(=O)c5ccccc5C4=O)c4ccccc43)cc2)cc1 (relative stereo)
210 to 211 | CSc1cc(C(C)(C)C)c(O)c(-c2nc3ccc(S(=O)(=O)C(F)(F)F)cc3[nH]2)c1C
110 to 113 | Cc1oc(-c2ccccc2)nc1CCOc1ccc(CO)cc1
167 to 168 | COc1ccc(-c2cc(=O)n(Cc3cccnc3)nc2-c2ccc(OC)cc2)cc1
> 300 | CC(=O)Nc1cccc(C=Cc2nc3c(c(=O)n(C)c(=O)n3C)n2C)c1
123 to 124 | Cn1cc(Br)cc(Nc2ccc(C3CNC3)cn2)c1=O
143 to 145 | CCOC(=O)C1=C(COCCN=[N+]=[N-])NC(C)=C(C(=O)OC)C1c1cccc(C(F)(F)F)c1Cl (stereo not drawn)
130 | COc1ccc(CS[C@@H]2C[C@@H](C(=O)NN)N(S(=O)(=O)c3ccc4ccccc4c3)C2)cc1
82 | CC(C)(C)OC(=O)N1CCC(Nc2cccc(NC(=O)c3ccc(F)cc3Cl)n2)CC1
196 to 197 | CCOC(=O)c1cc2c(C=O)cc3c4ccccc4ccc3c2s1
112 | O=c1n(CCCN2CCC(c3c[nH]c4ccccc34)CC2)nc2ccccn12
195 to 196 | CC(C)(C)c1cc(C=O)c2ccccc2c1O
133 to 135 | CC(C)N1C(=O)c2ccccc2N(C(=O)CCl)S1(=O)=O
65 to 75 | CC(C)(C)OC(=O)N1CCC(CN2C(=O)C3(COc4cc5c(cc43)C(C)(C)CO5)c3ccccc32)CC1 (stereo not drawn)
137 to 140 | C=CCCNS(=O)(=O)CC(=O)C1=C(C)NC(C)=C(C(=O)OC(C)C)C1c1cccc([N+](=O)[O-])c1 (stereo not drawn)
187 to 188 | CC(C)(C)Cc1c(CC(C)(C)C(=O)O)n(Cc2ccc(Cl)cc2)c2ccc(OCc3ccc4sccc4n3)cc12
173 to 175 | COC(=O)c1ccc(CN2CCCc3cc4c(cc32)C(C)(C)CCC4(C)C)cc1
236 to 237 | Cc1cc2c(cc1Sc1ccc(C(=O)Nc3ccc(O)cc3)cc1)C(C)(C)CCC2(C)C
111 | COc1ccccc1C1(CC(=O)N2CCN(c3ccncc3)CC2)C(=O)Nc2ccc(Cl)cc21 (stereo not drawn)
93 to 93.5 | O=C(CCCCC(=O)Oc1ccc(C(=O)OCc2ccccc2)cc1)Oc1ccc(C(=O)OCc2ccccc2)cc1

melting point [°C] | Compound
89.5 to 92 | COC(=O)c1ccc(CO)cc1SCc1ccccc1
275 to 280 | Cc1c2ccccc2c2c3c(cccc13)C(=O)OC2=O
133 to 135 | NC(=O)CC[C@H](NC(=O)c1ccc(OCc2ccccc2)cc1OCc1ccccc1)C(=O)N1CCN(Cc2ccccc2)CC1
175 to 177 | COc1cccc(OC)c1C(=O)NC1=NN=C(C(C)(C)C)CS1
84 to 85 | O=C1CCC(O)(c2ccc(F)c(F)c2)CC1
132 to 134 | C=C(COc1ccc(C(=O)CCC(=O)O)cc1F)COc1ccc(C(C)=O)c(O)c1CCC
> 300 | Cc1cc2c([nH]c1=O)C(=O)c1ccccc1C2=O
101 to 103 | O=C(O)C(O)c1cccc(COc2ccccc2Cl)c1COc1ccccc1Cl (stereo not drawn)
43 to 44 | COC(=O)Cc1ccc(C(C)=O)s1
122 to 124 | CC(C)(C)c1ccc(OCC2=NC3(O)c4ccc(Cl)cc4CC3S2)cc1 (stereo not drawn)
102 | O=C1CCC(N2CCOc3cc(Br)ccc32)CC1
107 to 108 | CCOC(=O)/C=C/c1nc(COc2ccc(CCl)cc2OC)c(C)o1
58 to 60 | CCCCCCCCCCCCCC(=O)Oc1ccc([N+](=O)[O-])cc1OC(=O)CCCCCCCCCCCCC
239 to 240 | O=C(O)c1cc(-n2c(-c3ccc(F)cc3)cc3c2CCCC3)ccc1O
56 to 66 | CCOC(=O)COc1cccc2c1OCCC2=O
153 to 156 | CC(C)(C)CC(C)(C)c1cc(N=Nc2cc([N+](=O)[O-])ccc2Cl)c(O)c(C(C)(C)c2ccccc2)c1
196 to 197 | Cc1ccc(Oc2cncc3sc(C(N)=O)cc23)cc1
170 to 180 | COc1cc(C(O)CN(c2nc3ccccc3[nH]2)C(C)CCn2cnc3ccccc32)ccc1OCc1ccccc1 (stereo not drawn)
68 to 69 | C=CCc1c(OCOC)cc(OCOC)c(C(=O)C=Cc2ccc(OCOC)cc2)c1O
89 | c1ccc2cc(OCCNC3CCCCC3)ccc2c1
80 to 82 | CC(C)(C#N)c1ccc(C(=O)C2CC2)cc1
> 300 | COc1cc2cc3c(=O)c(C#N)c[nH]c3nc2cc1OC
100 to 102 | COc1cc(CCNC(=O)N(C)O)cc(OC)c1OC

melting point [°C] | Compound
228 | O=Cc1cc2cc(OCc3ccccc3)c(F)cc2nc1Cl
80.5 to 86.5 | NC(Cc1ccc(OCc2ccccc2)cc1)C(=O)Nc1c(F)cc(F)cc1F (stereo not drawn)
105 to 107 | CCOc1cccc(C(S)C(=O)O)c1 (stereo not drawn)
148 | NS(=O)(=O)c1ccc(OCCn2ccnc2)cc1
178 | Cc1nc2c3c(ccc2n1C1CC1)C(=O)[C@H](O)[C@@H](c1ccccc1)O3
75 to 77 | CC(C)C[C@H](NC(=O)c1ccc2c(c1)Nc1ccccc1S2)C(=O)N1CCC2(C1)OCCO2
80 to 81.5 | O=C(O)CCC=C(c1ccccc1)c1ccccc1
241 to 243 | O=C(O)c1ccc(C(=O)NOCc2ccc3ccccc3c2)cc1
210 | C=Cn1cc(C(=O)O)c(=O)c2cc(F)c(Cl)cc21
139 to 143 | Cc1ccc2c(c1)c(N1CCN(C(=O)c3cccs3)CC1)c(C#N)c(=O)n2CCN1CCCC1
83.5 to 85.5 | C[C@H]1[C@H](c2ccccc2)OC(c2cc(Br)cc3c2OCC3)N1C (stereo partly drawn)
106 to 108 | CC(COc1ccccc1)C1SC(=O)NC1=O (stereo not drawn)
144 to 146 | CC(=O)C(Cl)=NNc1cccc(C)c1
160 to 162 | COc1nc(-c2ccccc2)c2ccsc2n1
296 to 299 | CS(=O)(=O)c1ccc(C2CC(=O)C(C(=O)c3ccc(Cl)cc3[N+](=O)[O-])C(=O)N2)cc1 (stereo not drawn)
139 to 144 | NS(=O)(=O)c1ccc(-n2nc(CCCNC(=O)NC34CC5CC(CC(C5)C3)C4)cc2-c2ccccc2)cc1
159 to 161 | Nc1nc2ccccc2c2c1ncn2CCOCCCc1cncnc1
131 to 132 | O=C(O)c1csc(C(F)F)c1
132 to 135 | NCCc1ccc(OCCC(c2ccc(Cl)cc2)(c2ccc(Cl)cc2)c2ccc(Cl)cc2)cc1
137 to 138 | O=[N+]([O-])c1ccccc1Sc1ncc[nH]1
62.5 to 63.5 | COCOc1ccc(C=CC(=O)c2c(OCOC)cc(OCOC)c(CC=C(C)C)c2O)cc1OC
140 | Cn1c(-c2ccccc2Cl)nnc1-c1ccccc1Cl
67 to 68 | N#CCc1cc([N+](=O)[O-])c(F)cc1Cl

melting point [°C] | Compound
246 | CC(C)(CO)NS(=O)(=O)c1ccc(Cl)c(NC(=O)c2cnn3c(C(F)(F)F)cc(-c4ccc(C(F)(F)F)cc4)nc23)c1
138 to 139 | CCOC(=O)N1CCNC1=Nc1ccc(Cl)cc1Cl
193 to 194 | COC(=O)c1[nH]c2c(C)ccc(C)c2c1[N+](=O)[O-]
172 to 175 | CN1CCC(c2c[nH]c3ccc(C(=O)c4ccc(OC(F)(F)F)cc4)cc23)CC1
> 330 | O=C1Nc2cc(Cl)ccc2C(=O)C1c1ccccn1 (stereo not drawn)
205 to 207 | N#Cc1cc(Cl)cc(Oc2ccc(CC(=O)Nc3ccc(S(N)(=O)=O)cc3Cl)cc2Br)c1
239 to 240 | Oc1ccccc1-c1cnc2cnc(-c3ccccc3O)nc2c1
128 to 130 | COc1ccc(CNc2n[nH]cc2C(N)=O)cc1OC1CCCC1
> 350 | O=C1N=c2cc(O)c(O)cc2=NC1=O
139 to 141 | CCCCNCc1nc(-c2ccc3c(c2)Nc2ccccc2S3)cs1
238 to 239 | Cc1cc(-c2sc(N3CCN(Cc4ccc(C(F)(F)F)cc4)C3=O)nc2C)n[nH]1
95.3 to 97.7 | O=C(O)C1(CCCCCCCCCCCCC2(C(=O)NC3CC3)CC2)CC1
76 to 77 | CC(C)C(=O)NC[C@@H]1CN2C(=O)C[C@H]2O1 (racemic)
140 to 141 | COC(=O)c1sc2nc(C)c(Cl)c(=O)n2c1C
194 to 197 | O=C1CC(c2csc(-n3ccnc3)n2)=Nc2ccc(-c3ccccc3F)cc2N1
270 to 271 | COc1cc2c(cc1OC)C1=C(CC2)NC(=O)CC1
210 to 211 | COc1cccc2c1Sc1ccc(C(C)C(N)=O)cc1C(=O)C2 (stereo not drawn)
94 to 97 | CCCC=Cc1c(C(C)C)nc(C(C)C)c(CO)c1-c1cccc(C)c1
156 | CC1(C)CC(=O)C(C(=O)Nc2ccc(Cl)c(C(F)(F)F)c2)C(=O)O1 (stereo not drawn)
232 | Cc1cc(-c2cnn3c(C(F)(F)F)cc(-c4cccc(C(F)(F)F)c4)nc23)ccn1

Compound | melting point [°C]
NP(N)(=O)NC(=O)c1cccc([N+](=O)[O-])c1 | 168 to 172
Cc1c(C(N)=O)nnn1Cc1c(F)cccc1F | 208 to 210
CN1C(=O)[C@H](NC(=O)CCCc2ccccc2)N=C(c2ccccc2)c2ccccc21 | 65 to 74
CCN1CCC2(c3cccc(O)c3)Cc3[nH]c(C(=O)Nc4ccccc4)c(C)c3CC2C1 (stereo not drawn) | 271 to 272
C=C(C)c1c(OC)cc(Cc2cnc(N)nc2N)cc1OC | 228 to 229
CNC(=O)ON=C1OCCSC1(C)C | 67 to 68
COCCCN(c1nc(Cl)nc(N(CCCOC)C2CC(C)(C)NC(C)(C)C2)n1)C1CC(C)(C)NC(C)(C)C1 | 160 to 161
Cc1ccc(-c2ccccc2-c2nnn[nH]2)cc1 | 148 to 150
Clc1nc(OC(Cl)(Cl)Cl)cc(C(Cl)(Cl)Cl)n1 | 67 to 69
